Assay [1] concerns iWT cardiomyocytes. In words: Traction force microscopy of paced engineered cardiomyocytes (force generation, beat rate), iWT. In kind it is cell-based, human. To be noted: wild-type cells, FIGS. 93-95. From the text:
FIG. 93 is a set of graphs showing force generation of engineered cardiomyocytes treated with a PI3K inhibitor (left) or PI3K activator (right). Relative change in force generation between iWT (black) and G296S (grey) cardiomyocytes after inhibition (circle) or activation (triangle) of P13K signaling. Traction force microscopy (TFM) measurements of CMs responding accurately to 1 Hz pacing. Data are mean±sem, *,p<0.05, **,p<0.005, ***p<0.0005 (Mann-Whitney test).
FIG. 94 is a schematic illustrating the postulated protein-protein interaction in wild-type (top) and G296S mutant (bottom) cardiomyocytes. Beat rate measurements between iWT (black) and G296S (grey) cardiomyocytes after inhibition (circle) or activation (triangle) of P13K signaling. TFM measurements of cardiomyocytes responding accurately to 1 Hz pacing. Data are mean±sem, *,p<0.05, ** p<0.005, ***p⋅<0.0005 (Mann-Whitney test).
A “scale-free” network (Barabasl and Albert, ⋅1999) of 716 nodes connected by 2,353 edges with an average 6.6 neighbors and path length of 4.3 (FIG. 90). Nodes were connected by edges representing physical (protein-protein) or functional (genetic, co-expression, co-occurrence) interactions. At least 5 sub-networks connected through 20 regulatory “hubs” were identified. […]

Assay [2] has as its system hiPS cell-derived cardiomyocytes. Briefly: Calcium flux measurements of hiPS cell-derived cardiomyocytes. The class given is cell-based, human. To be noted: isoproterenol followed by carbachol, FIG. 17. From the text: A step-wise differentiation protocol was used to generate purified cardiomyocytes from the above-described iPS cell lines (FIG. 12) (Lian et al, 2012; Tohyama et al.,2013). […] The iPS cardiomyocytes spontaneously contracted, expressed high levels of sarcomeric and myofibril markers, and had membrane electrophysiology and gene expressions similar to human cardiomyocytes; 30% were binucleated (FIGS. 15 and 16). […] The protocol thus generated functional human cardiomyocytes suitable for deeper interrogation of cell identity and function.

Molecules are shown by their SMILES.

As to `O=c1cc(N2CCOCC2)oc2c(-c3ccccc3)cccc12` [LY294002], in assay [1], the beat rates entry is on record as “no effect”.
`C[N+](C)(C)CCOC(N)=O` [carbachol]: the calcium flux response entry in assay [2] was “expected response”.
Take `CC(C)NCC(O)c1ccc(O)c(O)c1` (stereo not drawn) [isoproterenol]: in assay [2], the calcium flux response entry is listed as “expected response”.
